Patent US20150218212A1, “FLUORINATED EPOXYKETONE-BASED TETRAPEPTIDE COMPOUNDS AND USES THEREOF AS PROTEASOME INHIBITORS” (FLUORINOV PHARMA INC., priority 2012, published 2015)

What was measured:
Type in all cases: cell-based, human
[1] = test system: OVCAR-8; assay: NCI screening panel, OVCAR-8 (Ovarian Cancer)
Protocol: (§1) Representative compounds of Formula I were screened using the National Cancer Institute (NCI) screening panel, which consists of a panel of human tumor cell lines, representing leukemia, melanoma, and cancers of the lung, colon, ovary, breast, prostate and renal system.
(§2) After 24 h, two plates of each cell line are fixed in situ with TCA, to represent a measurement of the cell population for each cell line at the time of drug addition (Tz). Experimental drugs are solubilised in dimethyl sulfoxide at 400-fold the desired final maximum test concentration and stored frozen prior to use. At the time of drug addition, an aliquot of frozen concentrate is thawed and diluted to twice the desired final maximum test concentration with complete medium containing 50 μg/mL gentamicin. Additional four, 10-fold or ½ log serial dilutions are made to provide a total of five drug concentrations plus control. Aliquots of 100 μl of these different drug dilutions are added to the appropriate microtiter wells already containing 100 μl of medium, resulting in the required final drug concentrations.
(§3) Following drug addition, the plates are incubated for an additional 48 h at 37° C., 5% CO2, 95% air, and 100% relative humidity. For adherent cells, the assay is terminated by the addition of cold TCA (trichloroacetic acid). Cells are fixed in situ by the gentle addition of 50 μl of cold 50% (w/v) TCA (final concentration, 10% TCA) and incubated for 60 minutes at 4° C. The supernatant is discarded, and the plates are washed five times with tap water and air dried. Sulforhodamine B (SRB) solution (100 μl) at 0.4% (w/v) in 1% acetic acid is added to each well, and plates are incubated for 10 minutes at room temperature. After staining, unbound dye is removed by washing five times with 1% acetic acid and the plates are air dried. Bound stain is subsequently solubilised with 10 mM trizma base, and the absorbance is read on an automated plate reader at a wavelength of 515 nm. For suspension cells, the methodology is the same except that the assay is terminated by fixing settled cells at the bottom of the wells by gently adding 50 μl of 80% TCA (final concentration, 16% TCA). Using the seven absorbance measurements [time zero, (Tz), control growth, (C), and test growth in the presence of drug at the five concentration levels (Ti)], the percentage growth is calculated at each of the drug concentrations levels. Percentage growth inhibition is calculated as: [(Ti−Tz)/(C−Tz)]×100 for concentrations for which Ti>/=Tz and [(Ti−Tz)/Tz]×100 for concentrations for which Ti<Tz.
(§4) Three dose response parameters are calculated for each experimental agent. Growth inhibition of 50% (GI50) is calculated from [(Ti−Tz)/(C−Tz)]×100=50, which is the drug concentration resulting in a 50% reduction in the net protein increase (as measured by SRB staining) in control cells during the drug incubation. The drug concentration resulting in total growth inhibition (TGI) is calculated from Ti=Tz. The LC50 (concentration of drug resulting in a 50% reduction in the measured protein at the end of the drug treatment as compared to that at the beginning) indicating a net loss of cells following treatment is calculated from [(Ti−Tz)/Tz]×100=−50. Values are calculated for each of these three parameters if the level of activity is reached. However, if the effect is not reached or is exceeded, the value for that parameter is expressed as greater or less than the maximum or minimum concentration tested.

[2] = test system: COLO 205; assay: NCI screening panel, COLO 205 (Colon Cancer)
Protocol: as §1, §2, §3, §4

[3] = test system: SR; assay: NCI screening panel, SR (Leukemia)
Protocol: as §1, §2, §3, §4

[4] = test system: UACC-62; assay: NCI screening panel, UACC-62 (Melanoma)
Protocol: as §1, §2, §3, §4

[5] = test system: NCI-H23; assay: NCI screening panel, NCI-H23 (Non-Small Cell Lung Cancer)
Protocol: as §1, §2, §3, §4

[6] = test system: RPMI-8226; assay: NCI screening panel, RPMI-8226 (Leukemia)
Protocol: as §1, §2, §3, §4

[7] = test system: A498; assay: NCI screening panel, A498 (Renal Cancer)
Protocol: as §1, §2, §3, §4

[8] = test system: HL-60(TB); assay: NCI screening panel, HL-60(TB) (Leukemia)
Protocol: as §1, §2, §3, §4

[9] = test system: PC-3; assay: NCI screening panel, PC-3 (Prostate Cancer)
Protocol: as §1, §2, §3, §4

[10] = test system: OVCAR-5; assay: NCI screening panel, OVCAR-5 (Ovarian Cancer)
Protocol: as §1, §2, §3, §4

[11] = test system: BT-549; assay: NCI screening panel, BT-549 (Breast Cancer)
Protocol: as §1, §2, §3, §4

[12] = test system: RXF 393; assay: NCI screening panel, RXF 393 (Renal Cancer)
Protocol: as §1, §2, §3, §4

[13] = test system: NCI-H322M; assay: NCI screening panel, NCI-H322M (Non-Small Cell Lung Cancer)
Protocol: as §1, §2, §3, §4

[14] = test system: LOX IMVI; assay: NCI screening panel, LOX IMVI (Melanoma)
Protocol: as §1, §2, §3, §4

[15] = test system: SW-620; assay: NCI screening panel, SW-620 (Colon Cancer)
Protocol: as §1, §2, §3, §4

[16] = test system: M14; assay: NCI screening panel, M14 (Melanoma)
Protocol: as §1, §2, §3, §4

[17] = test system: 786-0; assay: NCI screening panel, 786-0 (Renal Cancer)
Protocol: as §1, §2, §3, §4

[18] = test system: HT29; assay: NCI screening panel, HT29 (Colon Cancer)
Protocol: as §1, §2, §3, §4

[19] = test system: MCF7; assay: NCI screening panel, MCF7 (Breast Cancer)
Protocol: as §1, §2, §3, §4

SMILES: CC(C)C[C@H](NC(=O)[C@H](COC(F)F)NC(=O)[C@H](COC(F)F)NC(=O)[C@H](CCc1ccccc1)NC(=O)CN1CCOCC1)C(=O)[C@@]1(C)CO1 [Example 7, (2S)-N-[(1S)-1-(difluoromethoxymethyl)-2-[[(1S)-1-(difluoromethoxymethyl)-2-[[(1S)-3-methyl-1-[(2R)-2-methyloxirane-2-carbo-nyl]butyl]amino]-2-oxo-ethyl]amino]-2-oxo-ethyl]-2-[(2-morpholinoacetyl)amino]-4-phenyl-butanamide]
- Log10GI50 [1]: −6.94
- Log10LC50 [1]: >−4.00
- Log10TGI50 [1]: −5.93
- Log10GI50 [2]: −7.23
- Log10LC50 [2]: >−4.00
- Log10TGI50 [2]: −5.89
- Log10GI50 [3]: −7.64
- Log10LC50 [3]: >−4.00
- Log10TGI50 [3]: >−4.00
- Log10GI50 [4]: −7.49
- Log10LC50 [4]: −4.37
- Log10TGI50 [4]: −6.73
- Log10GI50 [5]: −7.57
- Log10LC50 [5]: >−4.00
- Log10TGI50 [5]: −5.58
- Log10GI50 [6]: −7.56
- Log10LC50 [6]: >−4.00
- Log10TGI50 [6]: −7.04
- Log10GI50 [7]: −7.40
- Log10LC50 [7]: −6.06
- Log10TGI50 [7]: −6.75
- Log10GI50 [8]: −7.46
- Log10LC50 [8]: >−4.00
- Log10TGI50 [8]: −6.48
- Log10GI50 [9]: −7.49
- Log10LC50 [9]: −5.41
- Log10TGI50 [9]: −6.86
- Log10GI50 [10]: −7.31
- Log10LC50 [10]: >−4.00
- Log10TGI50 [10]: −6.14
- Log10GI50 [11]: −7.68
- Log10LC50 [11]: >−4.00
- Log10TGI50 [11]: −7.07
- Log10GI50 [12]: −6.93
- Log10LC50 [12]: −6.22
- Log10TGI50 [12]: −6.57
- Log10GI50 [13]: −7.04
- Log10LC50 [13]: −4.81
- Log10TGI50 [13]: −6.35
- Log10GI50 [14]: −7.99
- Log10LC50 [14]: −7.13
- Log10TGI50 [14]: −7.56
- Log10GI50 [15]: −7.61
- Log10LC50 [15]: >−4.00
- Log10TGI50 [15]: −5.63
- Log10GI50 [16]: −7.11
- Log10LC50 [16]: >−4.00
- Log10TGI50 [16]: −5.70
- Log10GI50 [17]: −6.45
- Log10LC50 [17]: >−4.00
- Log10TGI50 [17]: −5.33
- Log10GI50 [18]: <−8.00
- Log10LC50 [18]: >−4.00
- Log10TGI50 [18]: −4.93
- Log10GI50 [19]: <−8.00
- Log10LC50 [19]: >−4.00
- Log10TGI50 [19]: >−4.00

SMILES: CC(C)C[C@H](NC(=O)[C@H](Cc1ccccc1)NC(=O)[C@H](COC(F)F)NC(=O)[C@H](COC(F)F)NC(=O)CN1CCOCC1)C(=O)[C@@]1(C)CO1 [Example 11, (2S)-2-[[(2S)-3-(difluoromethoxy)-2-[[(2S)-3-(difluoromethoxy)-2-[(2-morpholinoacetyl)-amino]propanoyl]amino]propanoyl]amino]-N-[(1S)-3-methyl-1-[(2R)-2-methyloxirane-2-carbonyl]butyl]-3-phenyl-propanamide]
- Log10GI50 [1]: −6.94
- Log10LC50 [1]: >−4.00
- Log10TGI50 [1]: >−4.00
- Log10GI50 [2]: −7.21
- Log10LC50 [2]: >−4.00
- Log10TGI50 [2]: −5.31
- Log10GI50 [3]: −7.82
- Log10LC50 [3]: >−4.00
- Log10TGI50 [3]: >−4.00
- Log10GI50 [4]: −7.52
- Log10LC50 [4]: >−4.00
- Log10TGI50 [4]: −6.73
- Log10GI50 [5]: −7.50
- Log10LC50 [5]: >−4.00
- Log10TGI50 [5]: −5.55
- Log10GI50 [6]: −7.65
- Log10LC50 [6]: >−4.00
- Log10TGI50 [6]: −7.02
- Log10GI50 [7]: −7.64
- Log10LC50 [7]: −6.08
- Log10TGI50 [7]: −7.00
- Log10GI50 [8]: −7.46
- Log10LC50 [8]: >−4.00
- Log10TGI50 [8]: −6.42
- Log10GI50 [9]: −7.32
- Log10LC50 [9]: >−4.00
- Log10TGI50 [9]: −6.51
- Log10GI50 [10]: −7.37
- Log10LC50 [10]: >−4.00
- Log10TGI50 [10]: −6.46
- Log10GI50 [11]: −7.76
- Log10LC50 [11]: >−4.00
- Log10TGI50 [11]: −7.06
- Log10GI50 [12]: −6.98
- Log10LC50 [12]: −6.23
- Log10TGI50 [12]: −6.60
- Log10GI50 [13]: −6.85
- Log10LC50 [13]: −4.06
- Log10TGI50 [13]: −6.03
- Log10GI50 [14]: −7.79
- Log10LC50 [14]: −7.09
- Log10TGI50 [14]: −7.44
- Log10GI50 [15]: −7.63
- Log10LC50 [15]: >−4.00
- Log10TGI50 [15]: −5.97
- Log10GI50 [16]: −7.21
- Log10LC50 [16]: >−4.00
- Log10TGI50 [16]: −5.91
- Log10GI50 [17]: −6.66
- Log10LC50 [17]: >−4.00
- Log10TGI50 [17]: −5.63
- Log10GI50 [18]: −7.70
- Log10LC50 [18]: >−4.00
- Log10TGI50 [18]: −5.91
- Log10GI50 [19]: <−8.00
- Log10LC50 [19]: >−4.00
- Log10TGI50 [19]: >−4.00
